Tests used:
Tel-Src = Tel-Src (Homo sapiens, UniProt P12931+P41212); assay: Tyrosine kinase transformed Ba/F3 cellular assay; format: cell-based; conditions: for cellular activity against Src-family kinases (Tel-Src): Ba/F3
Tel-Lyn = Tel-Lyn (Homo sapiens, UniProt P07948+P41212); assay: Tyrosine kinase transformed Ba/F3 cellular assay; format: cell-based; conditions: for cellular activity against Src-family kinases (Tel-Lyn): Ba/F3
[1] = test system: b-raf, CSF1R, DDR1, DDR2, EphA2, EphA5, EphA8, EphB1, EphB2, EphB3, Frk, Kit, Lck, p38α, p38β, PDGFRα, PDGFRβ, Raf1; assay: Ambit KinomeScan panel of 402 kinases, single concentration; format: binding; conditions: single concentration of 10 µM
EphA6 = molecular target: T1, EphA6 (Homo sapiens, UniProt Q9UF33); assay: KinomeScan dose-response dissociation constant; conditions: KinomeScan binding
T1 sequence (Q9UF33 23-1036): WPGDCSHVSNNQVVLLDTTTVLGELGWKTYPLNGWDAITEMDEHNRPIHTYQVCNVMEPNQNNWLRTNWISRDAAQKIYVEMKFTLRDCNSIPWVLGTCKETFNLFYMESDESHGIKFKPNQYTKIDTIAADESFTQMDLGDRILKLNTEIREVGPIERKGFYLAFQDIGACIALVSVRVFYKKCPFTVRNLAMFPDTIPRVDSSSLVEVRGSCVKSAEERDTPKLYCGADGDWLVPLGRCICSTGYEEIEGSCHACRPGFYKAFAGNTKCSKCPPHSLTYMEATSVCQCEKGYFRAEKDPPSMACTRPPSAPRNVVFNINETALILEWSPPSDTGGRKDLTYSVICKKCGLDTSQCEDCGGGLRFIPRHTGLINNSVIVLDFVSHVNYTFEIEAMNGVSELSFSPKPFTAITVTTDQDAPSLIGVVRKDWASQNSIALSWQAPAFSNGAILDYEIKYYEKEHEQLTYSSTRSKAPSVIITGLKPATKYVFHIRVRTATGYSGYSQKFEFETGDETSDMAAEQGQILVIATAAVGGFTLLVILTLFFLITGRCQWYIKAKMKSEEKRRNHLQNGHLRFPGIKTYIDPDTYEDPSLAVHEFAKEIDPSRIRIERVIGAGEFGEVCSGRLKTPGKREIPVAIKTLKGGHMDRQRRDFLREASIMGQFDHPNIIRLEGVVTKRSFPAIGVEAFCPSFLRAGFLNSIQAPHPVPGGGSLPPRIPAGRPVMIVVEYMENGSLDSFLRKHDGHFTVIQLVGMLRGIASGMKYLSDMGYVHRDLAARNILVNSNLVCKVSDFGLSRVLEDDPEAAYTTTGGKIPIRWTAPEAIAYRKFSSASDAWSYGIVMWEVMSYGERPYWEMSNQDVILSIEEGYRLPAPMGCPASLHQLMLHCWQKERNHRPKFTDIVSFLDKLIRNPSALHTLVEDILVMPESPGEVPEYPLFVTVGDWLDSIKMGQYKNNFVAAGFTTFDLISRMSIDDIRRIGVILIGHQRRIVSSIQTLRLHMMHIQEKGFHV

EphA7 = EphA7 (Homo sapiens, UniProt Q15375); assay: KinomeScan dose-response dissociation constant; format: binding; conditions: for inhibition of EphA7: KinomeScan binding
EphB1 = molecular target: T2, EphB1 (Homo sapiens, UniProt P54762); assay: KinomeScan dose-response dissociation constant; conditions: KinomeScan binding
T2 sequence (P54762 18-984): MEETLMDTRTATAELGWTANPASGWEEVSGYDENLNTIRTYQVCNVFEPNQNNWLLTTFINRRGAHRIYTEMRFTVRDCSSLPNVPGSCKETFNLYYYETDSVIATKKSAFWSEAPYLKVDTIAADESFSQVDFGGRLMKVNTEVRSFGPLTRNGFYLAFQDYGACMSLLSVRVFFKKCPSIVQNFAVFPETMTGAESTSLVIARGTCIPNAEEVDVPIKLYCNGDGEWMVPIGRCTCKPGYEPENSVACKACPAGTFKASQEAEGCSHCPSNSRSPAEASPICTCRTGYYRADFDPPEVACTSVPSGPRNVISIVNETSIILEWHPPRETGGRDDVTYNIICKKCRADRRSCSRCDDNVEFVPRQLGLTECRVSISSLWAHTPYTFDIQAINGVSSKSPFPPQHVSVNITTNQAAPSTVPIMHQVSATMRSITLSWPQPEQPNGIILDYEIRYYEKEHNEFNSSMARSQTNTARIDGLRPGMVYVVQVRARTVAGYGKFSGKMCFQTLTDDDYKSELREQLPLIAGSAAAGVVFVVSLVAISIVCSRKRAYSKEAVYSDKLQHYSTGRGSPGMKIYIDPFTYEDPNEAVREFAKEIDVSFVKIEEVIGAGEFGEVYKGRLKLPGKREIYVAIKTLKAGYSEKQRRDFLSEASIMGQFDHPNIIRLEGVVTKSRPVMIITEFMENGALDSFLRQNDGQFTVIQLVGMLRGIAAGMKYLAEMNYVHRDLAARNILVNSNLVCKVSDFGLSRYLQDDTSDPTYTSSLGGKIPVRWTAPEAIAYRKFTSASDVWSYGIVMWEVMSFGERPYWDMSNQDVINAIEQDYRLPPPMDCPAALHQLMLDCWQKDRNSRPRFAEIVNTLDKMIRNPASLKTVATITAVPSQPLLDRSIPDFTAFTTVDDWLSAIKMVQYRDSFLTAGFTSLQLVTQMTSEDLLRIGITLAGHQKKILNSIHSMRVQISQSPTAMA

b-raf = b-raf (Homo sapiens, UniProt P15056); assay: Cellular activity against b-raf; format: cell-based
Tel fusion of EphA3 = molecular target: T3, Tel fusion of EphA3 (Homo sapiens, UniProt P29320); assay: Tyrosine kinase transformed Ba/F3 cellular assay; format: cell-based; conditions: Ba/F3 cells transformed with Tel fusion of EphA3
T3 sequence (P29320 621-882): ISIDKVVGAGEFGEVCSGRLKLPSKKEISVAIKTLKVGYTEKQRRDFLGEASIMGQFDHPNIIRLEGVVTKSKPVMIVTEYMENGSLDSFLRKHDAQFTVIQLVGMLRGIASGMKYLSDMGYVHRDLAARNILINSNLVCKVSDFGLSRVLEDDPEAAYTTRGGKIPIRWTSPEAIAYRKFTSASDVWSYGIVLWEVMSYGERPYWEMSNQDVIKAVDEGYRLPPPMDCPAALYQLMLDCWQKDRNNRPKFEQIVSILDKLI
T3 sequence (P41212 40-124 partner): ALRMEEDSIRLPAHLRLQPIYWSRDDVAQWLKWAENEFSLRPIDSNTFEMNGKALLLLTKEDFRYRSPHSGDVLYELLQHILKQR

Bcr-Abl = Bcr-Abl (Homo sapiens, UniProt P00519+P11274); assay: Tyrosine kinase transformed Ba/F3 cellular assay; format: cell-based; conditions: for cross reactivity with Bcr-Abl: Ba/F3 panel screen
Eph-family kinases = assay: Invitrogen SelectScreen biochemical kinase activity assay; conditions: [Km,app] ATP, starting concentration 10 µM
FGFR2 = FGFR2 (Homo sapiens, UniProt P21802); assay: Tyrosine kinase transformed Ba/F3 cellular assay; format: cell-based; conditions: Ba/F3 panel screen, printed FGFR2/3/4
FGFR3 = FGFR3 (Homo sapiens, UniProt P22607); assay: Tyrosine kinase transformed Ba/F3 cellular assay; format: cell-based; conditions: Ba/F3 panel screen, printed FGFR2/3/4
FGFR4 = FGFR4 (Homo sapiens, UniProt P22455); assay: Tyrosine kinase transformed Ba/F3 cellular assay; format: cell-based; conditions: Ba/F3 panel screen, printed FGFR2/3/4
EphB2 = molecular target: T4, EphB2 (Homo sapiens, UniProt P29323); conditions: proteomic and cellular screening approaches ref 10, 9; cited from earlier work
T4 sequence (P29323 19-1055): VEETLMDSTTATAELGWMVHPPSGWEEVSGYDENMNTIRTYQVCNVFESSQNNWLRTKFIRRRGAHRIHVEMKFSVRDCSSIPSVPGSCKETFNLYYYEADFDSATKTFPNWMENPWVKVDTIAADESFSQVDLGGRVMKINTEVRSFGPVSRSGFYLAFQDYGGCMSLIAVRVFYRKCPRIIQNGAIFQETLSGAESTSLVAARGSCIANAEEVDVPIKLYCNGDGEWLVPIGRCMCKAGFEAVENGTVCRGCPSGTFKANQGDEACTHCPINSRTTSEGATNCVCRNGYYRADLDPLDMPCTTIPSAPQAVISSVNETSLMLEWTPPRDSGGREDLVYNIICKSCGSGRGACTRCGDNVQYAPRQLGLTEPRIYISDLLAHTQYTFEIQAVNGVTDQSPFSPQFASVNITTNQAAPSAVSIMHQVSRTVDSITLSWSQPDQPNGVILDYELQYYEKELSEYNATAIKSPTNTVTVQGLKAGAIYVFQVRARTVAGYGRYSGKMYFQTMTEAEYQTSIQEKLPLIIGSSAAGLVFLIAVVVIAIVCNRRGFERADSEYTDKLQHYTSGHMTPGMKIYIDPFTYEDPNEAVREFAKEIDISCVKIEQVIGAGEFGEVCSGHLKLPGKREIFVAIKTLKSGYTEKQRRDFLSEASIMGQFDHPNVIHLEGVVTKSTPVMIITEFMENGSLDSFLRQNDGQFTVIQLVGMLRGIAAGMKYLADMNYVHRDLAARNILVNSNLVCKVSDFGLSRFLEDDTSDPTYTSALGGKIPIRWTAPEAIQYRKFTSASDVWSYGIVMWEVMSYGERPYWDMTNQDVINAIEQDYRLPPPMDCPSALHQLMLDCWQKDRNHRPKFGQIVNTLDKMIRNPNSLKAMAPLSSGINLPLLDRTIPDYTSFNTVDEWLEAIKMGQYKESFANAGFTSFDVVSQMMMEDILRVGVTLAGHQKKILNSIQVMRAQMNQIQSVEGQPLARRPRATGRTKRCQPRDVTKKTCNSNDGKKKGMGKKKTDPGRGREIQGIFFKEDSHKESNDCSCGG

[2] = test system: Bcr-Abl threonine to isoleucine gatekeeper substitution; conditions: threonine to isoleucine substitution of the gatekeeper position ref 21; cited from earlier work

Tel-Src, sequence (P12931 270-523 limits assumed, one chain of several): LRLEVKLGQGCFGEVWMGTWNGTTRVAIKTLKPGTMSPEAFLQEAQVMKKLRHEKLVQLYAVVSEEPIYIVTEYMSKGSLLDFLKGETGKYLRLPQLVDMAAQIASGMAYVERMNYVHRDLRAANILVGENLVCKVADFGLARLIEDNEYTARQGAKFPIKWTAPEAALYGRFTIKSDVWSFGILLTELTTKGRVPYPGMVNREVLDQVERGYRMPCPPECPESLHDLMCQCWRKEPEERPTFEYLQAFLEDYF
EphA7, sequence (Q15375 28-998, species assumed): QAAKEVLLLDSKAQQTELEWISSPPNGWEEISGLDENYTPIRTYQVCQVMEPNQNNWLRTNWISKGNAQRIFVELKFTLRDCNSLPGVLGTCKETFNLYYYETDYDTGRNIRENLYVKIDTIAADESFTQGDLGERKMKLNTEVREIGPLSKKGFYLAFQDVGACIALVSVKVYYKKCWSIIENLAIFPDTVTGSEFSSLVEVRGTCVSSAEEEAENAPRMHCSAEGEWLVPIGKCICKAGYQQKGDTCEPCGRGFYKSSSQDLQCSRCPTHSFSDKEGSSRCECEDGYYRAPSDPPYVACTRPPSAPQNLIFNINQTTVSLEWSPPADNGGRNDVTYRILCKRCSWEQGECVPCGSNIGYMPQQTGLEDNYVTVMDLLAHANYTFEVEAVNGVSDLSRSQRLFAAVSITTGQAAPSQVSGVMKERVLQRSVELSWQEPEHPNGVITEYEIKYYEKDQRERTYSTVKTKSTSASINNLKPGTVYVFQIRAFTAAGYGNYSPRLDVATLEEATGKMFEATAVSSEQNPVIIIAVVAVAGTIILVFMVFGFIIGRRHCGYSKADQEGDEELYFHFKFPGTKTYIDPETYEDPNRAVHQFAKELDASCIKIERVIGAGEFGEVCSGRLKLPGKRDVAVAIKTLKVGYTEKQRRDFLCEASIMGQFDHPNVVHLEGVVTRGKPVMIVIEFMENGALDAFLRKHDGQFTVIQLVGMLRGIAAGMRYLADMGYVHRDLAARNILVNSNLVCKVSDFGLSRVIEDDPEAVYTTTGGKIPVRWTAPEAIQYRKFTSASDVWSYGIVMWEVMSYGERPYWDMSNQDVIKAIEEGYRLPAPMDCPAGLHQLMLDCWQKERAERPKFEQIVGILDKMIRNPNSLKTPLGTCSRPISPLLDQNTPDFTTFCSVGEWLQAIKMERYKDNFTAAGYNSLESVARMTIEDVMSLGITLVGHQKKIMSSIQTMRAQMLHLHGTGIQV
Bcr-Abl, sequence (P00519 28-1130 limits assumed, one chain of several): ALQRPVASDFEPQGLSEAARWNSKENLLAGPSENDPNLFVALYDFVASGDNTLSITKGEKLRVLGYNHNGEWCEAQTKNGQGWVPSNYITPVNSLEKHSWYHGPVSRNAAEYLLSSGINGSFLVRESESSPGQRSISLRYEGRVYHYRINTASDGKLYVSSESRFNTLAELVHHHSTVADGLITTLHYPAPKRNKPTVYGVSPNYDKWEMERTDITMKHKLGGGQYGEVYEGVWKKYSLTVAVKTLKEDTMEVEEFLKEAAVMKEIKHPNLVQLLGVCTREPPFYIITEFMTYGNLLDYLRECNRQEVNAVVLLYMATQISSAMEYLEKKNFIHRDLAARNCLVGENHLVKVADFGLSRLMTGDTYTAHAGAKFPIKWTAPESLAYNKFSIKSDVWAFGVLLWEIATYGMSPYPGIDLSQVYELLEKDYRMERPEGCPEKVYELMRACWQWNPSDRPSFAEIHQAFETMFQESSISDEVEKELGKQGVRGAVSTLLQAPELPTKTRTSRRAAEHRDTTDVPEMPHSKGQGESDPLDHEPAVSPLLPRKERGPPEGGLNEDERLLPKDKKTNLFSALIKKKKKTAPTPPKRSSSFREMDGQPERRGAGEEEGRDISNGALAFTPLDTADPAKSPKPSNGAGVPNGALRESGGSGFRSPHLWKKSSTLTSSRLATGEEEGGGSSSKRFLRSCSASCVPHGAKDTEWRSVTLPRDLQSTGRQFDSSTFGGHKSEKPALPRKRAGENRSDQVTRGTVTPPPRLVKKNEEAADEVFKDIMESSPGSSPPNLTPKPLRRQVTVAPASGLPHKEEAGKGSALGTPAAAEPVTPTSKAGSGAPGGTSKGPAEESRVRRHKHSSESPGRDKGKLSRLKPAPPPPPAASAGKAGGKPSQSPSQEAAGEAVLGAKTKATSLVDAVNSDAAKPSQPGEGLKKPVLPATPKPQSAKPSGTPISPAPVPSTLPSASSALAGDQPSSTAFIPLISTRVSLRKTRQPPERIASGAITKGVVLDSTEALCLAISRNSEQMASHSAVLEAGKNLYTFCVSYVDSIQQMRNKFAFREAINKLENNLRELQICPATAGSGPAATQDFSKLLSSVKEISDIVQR
Tel-Lyn, sequence (P07948 247-501 limits assumed, one chain of several): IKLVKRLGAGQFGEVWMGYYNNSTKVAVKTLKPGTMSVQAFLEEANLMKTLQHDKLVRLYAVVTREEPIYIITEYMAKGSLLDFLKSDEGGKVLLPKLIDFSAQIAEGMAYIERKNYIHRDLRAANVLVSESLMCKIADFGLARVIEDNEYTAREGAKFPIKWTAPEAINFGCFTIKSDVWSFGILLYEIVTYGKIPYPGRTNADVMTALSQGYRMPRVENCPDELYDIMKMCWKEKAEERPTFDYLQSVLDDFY
b-raf, sequence (P15056 whole entry, species assumed, the tested form may be a part): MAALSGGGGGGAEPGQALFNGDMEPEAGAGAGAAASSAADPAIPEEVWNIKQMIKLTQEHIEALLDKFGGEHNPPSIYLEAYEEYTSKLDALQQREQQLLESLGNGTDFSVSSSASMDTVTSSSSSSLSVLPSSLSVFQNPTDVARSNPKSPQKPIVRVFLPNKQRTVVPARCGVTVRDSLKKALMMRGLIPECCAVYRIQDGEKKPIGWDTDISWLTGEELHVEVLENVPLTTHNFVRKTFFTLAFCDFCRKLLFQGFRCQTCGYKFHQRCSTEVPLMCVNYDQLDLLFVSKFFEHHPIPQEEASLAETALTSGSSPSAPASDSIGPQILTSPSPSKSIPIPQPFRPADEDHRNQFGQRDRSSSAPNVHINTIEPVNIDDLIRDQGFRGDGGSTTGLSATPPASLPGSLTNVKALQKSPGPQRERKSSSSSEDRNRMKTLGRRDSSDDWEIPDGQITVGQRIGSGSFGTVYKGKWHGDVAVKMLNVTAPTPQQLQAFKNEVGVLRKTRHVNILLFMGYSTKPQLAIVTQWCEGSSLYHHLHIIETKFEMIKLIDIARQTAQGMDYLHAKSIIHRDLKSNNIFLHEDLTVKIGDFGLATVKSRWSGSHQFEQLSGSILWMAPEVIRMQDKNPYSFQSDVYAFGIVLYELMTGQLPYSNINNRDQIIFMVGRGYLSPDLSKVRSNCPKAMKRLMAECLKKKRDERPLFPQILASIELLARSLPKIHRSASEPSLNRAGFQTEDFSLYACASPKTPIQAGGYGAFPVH
FGFR4, sequence (P22455 467-755 limits assumed): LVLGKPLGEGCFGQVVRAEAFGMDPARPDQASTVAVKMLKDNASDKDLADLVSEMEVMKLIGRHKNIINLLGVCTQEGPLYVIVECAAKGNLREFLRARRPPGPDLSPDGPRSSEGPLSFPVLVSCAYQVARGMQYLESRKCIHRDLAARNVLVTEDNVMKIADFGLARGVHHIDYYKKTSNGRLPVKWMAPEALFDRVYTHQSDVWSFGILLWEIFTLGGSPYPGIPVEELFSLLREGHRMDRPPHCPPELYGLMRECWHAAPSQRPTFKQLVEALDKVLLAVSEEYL
FGFR2, sequence (P21802 481-770 limits assumed, species assumed): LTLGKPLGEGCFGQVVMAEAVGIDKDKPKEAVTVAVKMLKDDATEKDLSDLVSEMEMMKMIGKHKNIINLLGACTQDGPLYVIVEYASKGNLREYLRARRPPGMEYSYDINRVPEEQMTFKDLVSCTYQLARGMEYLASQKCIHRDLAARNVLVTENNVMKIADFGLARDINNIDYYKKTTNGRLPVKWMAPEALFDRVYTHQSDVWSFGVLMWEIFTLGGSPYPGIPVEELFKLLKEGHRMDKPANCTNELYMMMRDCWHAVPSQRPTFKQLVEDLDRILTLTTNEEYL
FGFR3, sequence (P22607 472-761 limits assumed): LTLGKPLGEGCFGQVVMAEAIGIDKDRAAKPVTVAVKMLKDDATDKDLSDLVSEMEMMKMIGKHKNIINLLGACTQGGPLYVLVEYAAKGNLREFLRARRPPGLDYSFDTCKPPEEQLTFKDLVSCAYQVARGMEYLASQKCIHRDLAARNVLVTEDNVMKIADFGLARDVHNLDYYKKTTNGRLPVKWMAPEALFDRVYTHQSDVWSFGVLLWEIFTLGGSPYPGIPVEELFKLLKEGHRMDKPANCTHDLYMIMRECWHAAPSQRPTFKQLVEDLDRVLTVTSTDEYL

SMILES: Cc1cn(-c2cc(NC(=O)c3ccc(C)c(NC(=O)c4ccno4)c3)cc(C(F)(F)F)c2)cn1 [Compound 6]
- cellular activity against Src-family kinases (Tel-Src) (Tel-Src): did not exhibit significant cellular activity
- cellular activity against Src-family kinases (Tel-Lyn) (Tel-Lyn): did not exhibit significant cellular activity
- selectivity profile (binding to kinases) [1]: binding to a common set of kinases
- inhibition of EphA6 (EphA6): not inhibited
- inhibition of EphA7 (EphA7): not inhibited
- inhibition of EphB1 (EphB1): not inhibited
- cellular activity against b-raf (b-raf): did not exhibit significant cellular activity

SMILES: CCN1CCN(Cc2ccc(NC(=O)c3ccc(C)c(NC(=O)c4cncc(-c5cccs5)c4)c3)cc2C(F)(F)F)CC1 [Compound 7]
- EC50 (Tel fusion of EphA3): < 500 nM
- EC50 (Tel-Src): < 500 nM
- EC50 (Tel-Lyn; Ba/F3 cells transformed with Tel fusion of Lyn): < 500 nM
- EC50 (Bcr-Abl; Ba/F3 cells transformed with Bcr-Abl): < 500 nM
- cross reactivity with Bcr-Abl (Bcr-Abl): cross reactivity
- selectivity profile (binding to kinases) [1]: inhibited all these kinases and many more

SMILES: Cc1ccc(C(=O)Nc2cccc(C(F)(F)F)c2)cc1Nc1ccc2occc(=O)c2c1 [Compound 8]
- cross reactivity with Bcr-Abl (Bcr-Abl): cross reactivity
- selectivity profile (binding to kinases) [1]: binding to a common set of kinases
- inhibition of EphA6 (EphA6): not inhibited
- inhibition of EphA7 (EphA7): not inhibited
- inhibition of EphB1 (EphB1): not inhibited

SMILES: Cc1ccc(C(=O)Nc2cccc(C(F)(F)F)c2)cc1Nc1cncc(C(N)=O)c1 [Compound 9]
- cellular activity against Src-family kinases (Tel-Src) (Tel-Src): did not exhibit significant cellular activity
- cellular activity against Src-family kinases (Tel-Lyn) (Tel-Lyn): did not exhibit significant cellular activity
- selectivity profile (binding to kinases) [1]: binding to a common set of kinases
- inhibition of EphA6 (EphA6): not inhibited
- affinity for EphA7 (EphA7): relatively low affinity
- inhibition of EphA7 (EphA7): not inhibited
- inhibition of EphB1 (EphB1): not inhibited
- selectivity and potency (IC50) (Eph-family kinases): good selectivity for Eph-family kinases with moderate potency
- cellular activity against b-raf (b-raf): did not exhibit significant cellular activity

SMILES: Cc1ccc(C(=O)Nc2cccc(C(F)(F)F)c2)cc1Nc1[nH]cnc2ncnc1-2 [Compound 10]
- cross reactivity with FGFR2 (FGFR2): cross reactivity
- cross reactivity with FGFR3 (FGFR3): cross reactivity
- cross reactivity with FGFR4 (FGFR4): cross reactivity

SMILES: Cc1nc(Nc2ncc(C(=O)Nc3c(C)cccc3Cl)s2)cc(N2CCN(CCO)CC2)n1 [dasatinib]
- EphB2 as target (EphB2): identified as a target

SMILES: Cc1cn(-c2cc(NC(=O)c3ccc(C)c(Nc4nccc(-c5cccnc5)n4)c3)cc(C(F)(F)F)c2)cn1 [nilotinib]
- EphB2 as target (EphB2): identified as a target
- inhibition of Bcr-Abl gatekeeper mutation [2]: not inhibited

Source: PMC2730633 (Bioorganic & medicinal chemistry letters, 2009)
